Data taken from BindingDB's records for doi:10.1074/jbc.M113.528695 (St. Paul's Hospital's Centre of Heart and Lung …, 2014).

Target: T1, Nitric oxide synthase, endothelial (Bos taurus, UniProt P29473)
T1 sequence (P29473 whole entry): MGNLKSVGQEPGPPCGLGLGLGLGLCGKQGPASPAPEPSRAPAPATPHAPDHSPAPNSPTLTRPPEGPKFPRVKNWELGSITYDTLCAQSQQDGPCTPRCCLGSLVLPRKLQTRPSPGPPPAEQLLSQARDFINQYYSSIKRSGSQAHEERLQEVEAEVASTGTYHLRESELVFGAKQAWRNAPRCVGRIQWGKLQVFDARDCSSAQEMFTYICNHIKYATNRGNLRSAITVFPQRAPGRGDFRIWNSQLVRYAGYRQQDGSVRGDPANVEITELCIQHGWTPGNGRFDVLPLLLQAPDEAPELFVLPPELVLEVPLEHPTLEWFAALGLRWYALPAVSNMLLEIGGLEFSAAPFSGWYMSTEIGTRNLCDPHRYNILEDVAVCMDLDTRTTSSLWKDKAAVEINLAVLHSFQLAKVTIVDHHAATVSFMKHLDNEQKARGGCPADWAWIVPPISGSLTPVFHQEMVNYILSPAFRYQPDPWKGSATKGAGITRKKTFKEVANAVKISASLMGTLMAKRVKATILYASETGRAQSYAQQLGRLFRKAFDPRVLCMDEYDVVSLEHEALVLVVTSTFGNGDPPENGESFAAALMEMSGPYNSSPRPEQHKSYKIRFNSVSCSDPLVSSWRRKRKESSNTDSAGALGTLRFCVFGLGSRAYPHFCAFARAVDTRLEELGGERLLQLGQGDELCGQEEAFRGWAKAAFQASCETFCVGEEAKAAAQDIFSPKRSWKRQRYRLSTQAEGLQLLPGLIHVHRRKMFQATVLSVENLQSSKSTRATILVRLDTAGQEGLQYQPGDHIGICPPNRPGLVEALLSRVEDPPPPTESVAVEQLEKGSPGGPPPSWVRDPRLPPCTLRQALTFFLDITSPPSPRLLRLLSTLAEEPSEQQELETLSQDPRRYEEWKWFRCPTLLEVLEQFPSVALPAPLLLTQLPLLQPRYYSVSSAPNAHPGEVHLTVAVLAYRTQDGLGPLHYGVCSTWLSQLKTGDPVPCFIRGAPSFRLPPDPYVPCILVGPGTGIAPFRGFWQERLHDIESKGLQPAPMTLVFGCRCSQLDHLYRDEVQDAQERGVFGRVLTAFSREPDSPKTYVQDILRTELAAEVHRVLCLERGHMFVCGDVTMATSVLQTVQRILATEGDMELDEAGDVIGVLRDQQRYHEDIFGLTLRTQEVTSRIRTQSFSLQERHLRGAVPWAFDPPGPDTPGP
Assay: Polarization Assay
Details: pH 7.5; 25 °C
Method: eNOS was diluted to varying concentrations in buffer containing 50 mM inorganic phosphate, 50 mM KCl, and 5 mM DTT, pH 7.5. A spectrophotometer was used to determine the concentration of the fluorescein-labeled peptide using the extinction coefficient for fluorescein (ε492 nm = 79,000 M^-1). Peptides (100 nM) were added to samples containing varying concentrations of eNOS and incubated for 1 h at room temperature. Samples were then plated on 384-well Grenier Bio-One solid black microplates in triplicate. Polarization was measured with a Tecan Infinite M1000 Pro apparatus in fluorescent polarization mode using 470-nm excitation and 515-nm emission filters.

Row | Kd [nM] | Substance
1 | 42 | H-TTFTVTKYWF-OH [TTFTVTKYWF]
2 | 23 | H-TTATVTKYWF-OH [TTATVTKYWF]
